From patent US11939241B2, “Stable percarboxylic acid compositions and uses thereof” (Ecolab USA Inc., priority 2012, dated 2024)

Assay: Quantitation of peroxide gases of decomposition (U-tube manometer)
Type: physicochemical
Procedure: The volume of peroxides' gases of decomposition was measured using a water filled U-tube fitted with a minimal volume tubing connected to a non-coring syringe needle. The manometer made of pyrex glass was filled partially with deionized water colored with FD&C blue dye #1 and 1,000 ppm of non-ionic surfactant. The dye allows for increased visibility of the water columns and the surfactant lowers the surface tension allowing for unbroken water columns. The manometer was also fitted with a metric ruler to allow the convenient determination of the column heights difference. Given that 1 atmosphere of pressure corresponds with […] of water column height and the limit of resolution on the column and ruler combination is about 1 mm, the signal/noise ratio approximates […].
Procedure. Four head space vials were double rinsed with the sample solution before adding 5 mL of sample solution (via Repeat Pipettor) and sealing the vials with a silicone backed PTFE septum with aluminum cap. Immediately after sealing the vials the temperature and barometric pressure were recorded. A set of water blank replicates of the same volume were also included. The sealed vials were stored for 24-48 hours at ambient temperatures inside a dark cabinet to allow for optimal gas pressure generation.
Calculations. By calibration of the U-tube water column displacement using a precision gas syringe, the water column height to gas volume ratio was calculated. Using the assumption of peroxide decay to molecular oxygen (ignoring CO2 or CO gases etc.), these values were converted to gas volumes and the loss of available oxygen in the sample was thereby calculated using the formulae below: 2 moles of RCO3H→2 moles of RCO2H+1 mole of O2(22.4 L of O2 at standard temperature and pressure) And 2 moles of H2O2→2 moles of H2O+1 mole of O2(22.4 L of O2 at standard temperature and pressure)

Net O2 Lost (5 mL sample, sealed vial, 24-48 hours, ambient temperature): 0.017 g
Net Gas Gen. (5 mL sample, sealed vial, 24-48 hours, ambient temperature, dark): 11.9 mL
Rel. Loss O2 (24-48 hours, ambient temperature): 0.02% w/w, %
Initial H2O2 (initial): 50.00 w/w, %
Initial POAA (initial): 0.00 w/w, %
Initial O2 (initial available oxygen): 23.53 w/w, %
Substance: Hydrogen peroxide [F]
